Measured values reported in patent US9636299B2, “Method for treating diabetic retinopathy” (XAVIER UNIVERSITY OF LOUISIANA, priority 2012, dated 2017).
Residues, ends and D or L forms follow the SMILES beside them.

Legend:
[1] = test system: endothelial nitric oxide synthase (eNOS); assay: eNOS expression in high glucose-treated hRMECs (Western blot); assay type: cell-based, human; details: 100 μM apoEdp, 30 minute treatment
Text: (§1) Cell Culture. Primary cultures of human retina microvascular endothelial cells (hRMECs) were purchased from the Applied Cell Biology Research Institute and grown on attachment factor-coated plates in cell systems complete (CSC) medium (Cell Systems, Kirkland, Wash.) supplemented with 20% fetal bovine serum, culture boost (animal derived growth factors) and bac-off (antibiotics). The primary hRMECs were used in their passages 4 to 6. The 18-a.a. apoE mimetic peptide apoEdp (SEQ ID NO:3, Ac-LRKLRKRLLLRKLRKRLL-amide), derived from the human apolipoprotein E receptor-binding region (see SED ID NO:1) between residues 141 and 149, was synthesized (Genemed, Arlington, Tex.) with a purity of greater than 95%. The apoEdp peptide was dissolved in phosphate-buffered saline (“PBS”) at a concentration appropriate for further experimental use. […]
(§2) Western Blotting. […] The total protein concentration was determined using a BCA protein assay kit (Pierce, Rockford, Ill.). […] To ensure the equal loading of protein in each lane, each membrane was stripped and re-probed with an antibody against β-actin, and the chemiluminescence was detected as described previously. After scanning the blots with a flatbed scanner, band intensities were analyzed using ImageJ (NIH) and the relative intensity values were normalized to control values. […]

[2] = test system: zona occludin 1 (ZO-1); assay: Streptozotocin-induced diabetic mice, retinal ZO-1 immunohistochemistry; assay type: in vivo, mouse; details: 14 consecutive days, vs untreated diabetic
Method: Streptozotocin (STZ) induced diabetes. Twelve week old C57Bl/6 mice were used for this study. Mice were induced to have diabetes by intraperitoneal injection of 170 μg/g of streptozotocin (Sigma Aldrich, St. Louis, Mo.). Controls were injected with a vehicle (0.01M sodium citrate buffer). On the third day after STZ treatment, mice tail veins were bled to test the hyperglycemic status using blood sugar detection kit (Lifescan; Johnson & Johnson, Milpitas, Calif.). Mice with blood sugar levels of >300 mg/dL on the third day after STZ treatment were considered diabetic. Eye drop treatment containing 1% apoEdp or vehicle PBS was continued 4 times a day for 14 consecutive days. Intra-peritoneal (i/p) injection containing 40 mg/kg of apoEdp or vehicle control PBS was administered once daily for 14 consecutive days. On the 15th day post-treatment, mice were euthanized, their eyes enucleated, and the retinas dissected out to use for mRNA or Western blot analysis.
Immunohistochemistry. […]
To investigate the effect of apoEdp on attenuation of ZO-1 loss, immunohistochemical detection of ZO-1 was performed in formalin-fixed de-paraffinized sections of mouse retinas of different experimental groups. […] The number of positive cells was determined in the high-power field (×400) for the retinas.

[3] = test system: heparan sulfate (HS); assay: Heparan sulfate shedding in high glucose-treated hRMECs (Western blot); assay type: cell-based, human; details: 30 mM glucose 72 hours, 50 or 100 μM apoEdp
Text: as §1, §2

CC(=O)N[C@@H](CC(C)C)C(=O)N[C@@H](CCCNC(=N)N)C(=O)N[C@@H](CCCCN)C(=O)N[C@@H](CC(C)C)C(=O)N[C@@H](CCCNC(=N)N)C(=O)N[C@@H](CCCCN)C(=O)N[C@@H](CCCNC(=N)N)C(=O)N[C@@H](CC(C)C)C(=O)N[C@@H](CC(C)C)C(=O)N[C@@H](CC(C)C)C(=O)N[C@@H](CCCNC(=N)N)C(=O)N[C@@H](CCCCN)C(=O)N[C@@H](CC(C)C)C(=O)N[C@@H](CCCNC(=N)N)C(=O)N[C@@H](CCCCN)C(=O)N[C@@H](CCCNC(=N)N)C(=O)N[C@@H](CC(C)C)C(=O)N[C@@H](CC(C)C)C(N)=O [apoEdp, Ac-LRKLRKRLLLRKLRKRLL-amide] (Ac-LRKLRKRLLLRKLRKRLL-NH2)
Elevated expression of eNOS induced by 30 mM D-glucose [1]: prevented
Number of ZO-1 positive cells in retina (high-power field ×400) ([2]; i/p injections 40 mg/kg): significantly increased the number of positive cells
Number of ZO-1 positive cells in retina (high-power field ×400) ([2]; topical 1% apoEdp drops): significantly increased the number of positive cells
High glucose-induced shedding of HS [3]: reduced the shedding
